Laboratory results as given in patent publication US5177106A, “4-amino substituted phenoxyalkyl carboxylic acid, ester, and alcohol derivatives as antihypercholesterolemic and antiatherosclerotic agents” (Warner-Lambert Company, priority 1991, dated 1993).

Columns and labels:
[1] = Elevation of HDL by test drug relative to gemfibrozil (test procedure of U.S. Pat. No. 4,413,011); format: in vivo; conditions: ratio; 50 mg/kg test drug vs 50 mg/kg gemfibrozil; 1 = as effective as gemfibrozil
Procedure: Additionally, the elevation of HDL is reported in the table as a ratio of the elevation of HDL effected by a dose of 50 mg/kg of the test drug divided by the elevation of HDL effected by a 50 mg/kg dose of gemfibrozil which is used as a control in each experiment. [formula] Thus, a figure of 1 means that the test drug was as effective as gemfibrozil in elevating HDL. […] The test procedure is described in U.S. Pat. No. 4,413,011, which is herein incorporated by reference.

[2] = target: T1, acyl-CoA:cholesterol acyltransferase (ACAT) (Oryctolagus cuniculus, UniProt G1SFD9); experiment: Inhibition of cholesterol esterification by acyl-CoA:cholesterol acyltransferase (ACAT), in vitro, rabbit intestinal microsomal fraction; format: biochemical; conditions: endogenous cholesterol and exogenous 14C-oleoyl-CoA, read-out: IC50 (concentration of test compound required to inhibit cholesteryl oleate formation to 50% of control)
T1 construct: rabbit intestinal microsomal fraction; from tissue; host or cells: rabbit intestine, microsomal fraction
T1 sequence (G1SFD9 1-524): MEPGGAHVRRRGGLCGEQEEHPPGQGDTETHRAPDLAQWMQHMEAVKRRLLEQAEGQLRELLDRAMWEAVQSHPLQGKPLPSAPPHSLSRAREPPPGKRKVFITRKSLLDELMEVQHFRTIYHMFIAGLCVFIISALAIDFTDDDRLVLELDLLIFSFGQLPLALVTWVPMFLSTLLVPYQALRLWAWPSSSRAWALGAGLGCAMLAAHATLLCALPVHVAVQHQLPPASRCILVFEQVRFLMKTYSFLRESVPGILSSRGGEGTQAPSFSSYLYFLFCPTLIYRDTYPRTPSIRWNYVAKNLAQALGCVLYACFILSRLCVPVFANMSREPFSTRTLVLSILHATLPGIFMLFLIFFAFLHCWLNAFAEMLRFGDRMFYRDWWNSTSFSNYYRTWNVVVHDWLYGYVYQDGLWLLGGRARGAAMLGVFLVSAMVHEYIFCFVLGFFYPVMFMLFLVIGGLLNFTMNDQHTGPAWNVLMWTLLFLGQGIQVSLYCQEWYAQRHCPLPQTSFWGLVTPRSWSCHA
Procedure: The compounds of the present invention were tested for their ability to inhibit the esterification of cholesterol by the enzyme acyl-CoA:cholesterol acyltransferase (ACAT). The data in the table below is expressed as IC50 values, i.e., the concentration of test compound required to inhibit cholesteryl oleate formation to 50% of control.
The in vitro test employed is more fully described in Field, F. J. and Salome, R. G., Biochemica et Biophysica Acta, Volume 712, pages 557-570 (1982). The assay evaluates the ability of a test compound to inhibit the esterification of cholesterol using endogenous cholesterol of a rabbit intestinal microsomal fraction and exogenous ^14 C-oleoyl-CoA as reactants.

[3] = patients with elevated cholesterol levels; 5-year trial; cited from earlier work

| SMILES | Δ HDL Test Compound / Δ HDL Gemfibrozil [1] | IC50 [2] [µM] | reduction of the rate of heart attack and sudden cardiac death [3] [%] |
| --- | --- | --- | --- |
| CCCCCCCCCCCCCCCCS(=O)(=O)Nc1cc(C)c(OCCCC(C)(C)C(=O)OC)cc1C [Example 5, 5-[4-[(Hexadecylsulfonyl)amino]-2,5-dimethylphenoxy]-2,2-dimethylpentanoic acid, methyl ester] | 0.8 | 74 |  |
| COC(=O)C(C)(C)CCCOc1cc(C)c(NS(C)(=O)=O)cc1C [Example 12] | 1.5 | 69 |  |
| COC(=O)C(C)(C)CCCOc1cc(C)c(NC(=S)Nc2ccccc2)cc1C [Example 16, 5-[2,5-Dimethyl-4-[[(phenylamino)-thioxomethyl]amino]phenoxy]-2,2-dimethylpentanoic acid, methyl ester] | 0.9 | 28 |  |
| Cc1ccc(C)c(OCCCC(C)(C)C(=O)O)c1 [gemfibrozil] |  |  | 34 |
